Test results from patent publication US11202789B2, “Method of treating glycogen storage disease” (Viking Therapeutics, Inc., priority 2016, dated 2021).
“Also recorded” adds a separate entry of the source.

What was measured:
Assay type in all cases: in vivo
[1] = system: male Zucker Diabetic fatty (ZDF) rats; assay: 4-week (28 days) efficacy and safety study in male Zucker Diabetic fatty (ZDF) rats
Method: Objectives: The objective of the study was to evaluate the efficacy and safety of Compound 2 treatment for 4 weeks in male Zucker Diabetic fatty (ZDF) rats. Total plasma cholesterol, blood glucose levels, liver and muscle glycogen levels, and a plasma clinical chemistry were evaluated. Additionally, histological and biochemical assessments of hepatic steatosis were performed post-mortem. MB07875, a known human thyroid hormone receptor ligand, was included as a comparator in these studies.
Methods: Eight-week old male ZDF rats (n=5/group) were treated orally with Compound 2 or MB07875 for 28 days. The doses of Compound 2 [in 0.5% carboxymethylcellulose (CMC)] were 0.25, 0.5, 1, 2.5, 5, 15 and 50 mg/kg/day. The dose of MB07875 (in 0.5% CMC) was 0.2 mg/kg/day. Body weight was assessed just prior to treatment and at 24 hours following the last dose. Total plasma cholesterol and blood glucose were measured on a weekly basis. […] In addition, the liver was removed and weighed, and a portion freeze-clamped for glycogen and triglyceride analysis. Another portion was placed in 10% neutral buffered formalin for hematoxalin and eosin (H & E) staining. Finally, the heart was excised and weighed.

G6PC−/− mice = assay: G6PC−/− mouse model of GSD Ia (Example 12)
Method: Compound 2 was tested in a G6PC−/−mouse model of GSD Ia. Daily injection of 0.1 to 0.2 mL 10% dextrose subcutaneously was initiated within 3 days of age for G6PC−/−mice. All G6PC−/−mice continued to receive daily dextrose injections during this time. Blood was collected at time of euthanasia, when tissues were collected. Two groups of 4 G6PC−/−mice (1 group treated with Compound 2, 1 group treated with vehicle) were analyzed to identify statistically significant differences between Compound 2-treated and vehicle-treated controls. We also treated 2 groups of 3 normal (wild type) mice, one with Compound 2 and one with vehicle.
Initially the GSD Ia mice were treated with Compound 2 from 5 to 10 days of age. Body mass, liver mass, liver glycogen concentration, liver triglycerides, fasting serum glucose, fasting serum triglycerides, and GSD-related cell signaling pathways were examined. Similarly, groups of GSD Ia mice were treated with vehicle for 5 days to serve as mock-treated controls for all assays. Groups of 3-4 mice were evaluated. GSD Ia mice were treated for >7 days to assess survival and longer-term effects of Compound 2 as described above (GSD Ia mice rarely survive >12 days of life without a therapeutic intervention). Metabolomic analysis of hepatic extracts were performed as described (Sinha, Farah et al. (2013), Hepatology 59(4):1366-80). Acylcarnitine and amino acid profiling were employed to detect any changes related to increased lipolysis and fatty acid beta-oxidation as described by Sinha et al. (Sinha, Farah et al. (2013), Hepatology 59(4):1366-80). […] Mean liver triglyceride content was reduced by more than 60% in Compound 2-treated animals relative to vehicle-treated control animals, while average liver weight was reduced by more than 30% vs. controls. Importantly, average liver weight as a percent of total body weight also declined by approximately 20% in treated vs. control animals. Further, treatment with Compound 2 led to statistically significant reductions in key metabolic markers of GSD Ia.

[2] = system: male diet-induced obese (DIO) C57Bl/6 mice; assay: 2, 5 and 10 week study in mouse model of diet-induced obesity
Method: Objectives: The objectives of this study were to evaluate the effects of 2, 5 and 10 weeks of Compound 2 treatment at doses of 10 and 30 mg/kg/day on total plasma cholesterol levels, blood glucose levels, and hepatic steatosis in a mouse model of diet-induced obesity.
Methods: Male C57Bl/6 mice (4 weeks old) were fed a high-fat diet (60% fat by kcal) for 88 days to induce obesity, hyperlipidemia, and mild hyperglycemia prior to initiation of the study. For the study, 3 groups of mice (n=24-28) were dosed daily by gavage with 10 or 30 mg/kg of Compound 2 or vehicle (0.1% carboxymethylcellulose) and maintained on the same high-fat diet. During treatment, body weight, total plasma cholesterol levels, and blood glucose levels of the animals were measured weekly. Subsets of animals (n=6-12; 30 mg/kg/day) were sacrificed prior to treatment and after 2, 5 and 10 weeks of treatment for analysis of liver weights, liver triglyceride levels and liver histology.

[3] = Compound 2 0.25-50 mg/kg/day oral, 28 days
[4] = 10 and 30 mg/kg/day, following 2, 5 and 10 weeks, vs vehicle

Cc1cc(OCP2(=O)OCCC(c3cccc(Cl)c3)O2)cc(C)c1Cc1ccc(O)c(C(C)C)c1 (centres unmarked) [Compound 2]
reduction of total plasma cholesterol ([1]; 1 mg/kg/day oral, day 28, vs vehicle): ~25% | total bilirubin increased ([1]; 2.5 mg/kg/day oral, day 28): ~86% | blood glucose levels decreased ([1]; 2.5 mg/kg/day oral, day 28, vs vehicle): ~47% | albumin-to-globulin ratio increased ([1]; 15 mg/kg/day oral, day 28): 21% | blood urea nitrogen decreased ([1]; 15 mg/kg/day oral, day 28): ~21% | liver glycogen levels reduced ([1]; 50 mg/kg/day oral, 28 days, dose-dependent): > 90% | albumin-to-globulin ratio increased ([1]; 50 mg/kg/day oral, day 28): 32% | alkaline phosphatase decrease ([1]; 50 mg/kg/day oral, day 28): ~42% | blood urea nitrogen decreased ([1]; 50 mg/kg/day oral, day 28): ~26% | calcium levels decreased ([1]; 50 mg/kg/day oral, day 28): ~5% | phosphorus levels increased ([1]; 50 mg/kg/day oral, day 28): ~27% | total bilirubin increased ([1]; 50 mg/kg/day oral, day 28): ~79% | total protein levels decreased ([1]; 50 mg/kg/day oral, day 28): ~10% | reduction of total plasma cholesterol ([1]; 50 mg/kg/day oral, day 28, vs vehicle): ~34% | effect on body weight [1, 3]: no significant effect | effect on heart weight [1, 3]: no significant effect | liver triglyceride content [1, 3]: no statistically significant decrease | muscle glycogen levels ([1]; Compound 2 0.25-50 mg/kg/day oral, 28 days, vs vehicle): unaffected; also recorded: no significant differences | blood glucose levels ([1]; Compound 2-treated groups (0.25-50 mg/kg/day), any time during the study): not increased | globulin decreased ([1]; doses of 5 mg/kg/day and above, oral, day 28): ≤ 25% | microvesicular steatosis, histological analysis of liver sections ([1]; doses ≥2.5 mg/kg/day oral, 28 days): decrease | decrease in liver glycogen levels relative to vehicle ([1]; highest dose evaluated (50 mg/kd/day), after 28 days of dosing): ~90% | cardiovascular function (heart rate, systolic and diastolic aortic pressure, LV dP/dt) ([1]; up to 50 mg/kg/day oral, 28 days): did not alter | average liver weight reduced (G6PC−/− mice; Compound 2-treated vs controls): more than 30% | mean liver triglyceride content reduced (G6PC−/− mice; Compound 2-treated vs vehicle-treated control animals): more than 60% | body mass (G6PC−/− mice; G6PC−/− mice, vs vehicle-treated controls (FIG. 15)): reduced | liver mass (G6PC−/− mice; G6PC−/− mice, vs vehicle-treated controls (FIG. 16)): reduced | liver mass as a percentage of body mass (G6PC−/− mice; G6PC−/− mice, vs vehicle-treated controls (FIG. 17)): reduced | liver glycogen levels (G6PC−/− mice; G6PC−/− mice, vs vehicle-treated controls (FIG. 18)): somewhat enhanced | serum triglycerides (G6PC−/− mice; G6PC−/− mice, vs vehicle-treated controls (FIG. 19)): somewhat enhanced | liver triglyceride concentrations (G6PC−/− mice; G6PC−/− mice, vs vehicle-treated controls (FIG. 20)): reduced | total liver triglycerides (G6PC−/− mice; G6PC−/− mice, vs vehicle-treated controls (FIG. 21)): reduced | average liver weight as a percent of total body weight declined (G6PC−/− mice; treated vs control animals): approximately 20% | macrovesicular and microvesicular steatosis (liver histology) ([2]; 30 mg/kg/day, after 2, 5 and 10 weeks, vs vehicle): visually reduced | blood glucose levels lower ([2]; 10 and 30 mg/kg/day by gavage, most time points, vs vehicle): up to 25% | total plasma cholesterol levels decreased ([2]; 10 and 30 mg/kg/day by gavage, week 1 through end of study, vs vehicle): more than 50% | liver weights lower [2, 4]: ~50% | liver-to-body weight ratios lower [2, 4]: ~40% | body weight gain ([2]; 10 and 30 mg/kg/day, up to 10 weeks): tended to reduce | total liver triglyceride content (mg/liver) lower ([2]; 10 and 30 mg/kg/day, weeks 2, 5 and 10, vs vehicle): up to 60% | liver triglyceride concentrations (mg/g liver) ([2]; 10 or 30 mg/kg/day, any time point, vs vehicle): No significant changes
